± gives the expanded uncertainty stated by the source.
Experiments:
[1] = excess molar enthalpy (molar enthalpy of mixing); xn = mol fraction of the nth substance listed; conditions: 298.15 K, 101.3 kPa, Liquid
[2] = Boiling temperature at pressure P; conditions: 101.3 kPa; Liquid; ebulliometry
[3] = 303.1 K; 101.33 kPa; Liquid; pycnometer

ClC(Cl)=C(Cl)Cl [tetrachloroethene] + CN1CCCC1=O
excess molar enthalpy ([1]; x1 = 0.039): -0.00239 ± 0.000813 kcal/mol
excess molar enthalpy ([1]; x1 = 0.0887): -0.00292 ± 0.000837 kcal/mol
excess molar enthalpy ([1]; x1 = 0.1357): -0.0012 ± 0.000789 kcal/mol
excess molar enthalpy ([1]; x1 = 0.2415): 0.007 ± 0.000956 kcal/mol
excess molar enthalpy ([1]; x1 = 0.2932): 0.0137 ± 0.00117 kcal/mol
excess molar enthalpy ([1]; x1 = 0.3454): 0.0214 ± 0.00141 kcal/mol
excess molar enthalpy ([1]; x1 = 0.536): 0.0623 ± 0.00263 kcal/mol
excess molar enthalpy ([1]; x1 = 0.6006): 0.0709 ± 0.00311 kcal/mol
excess molar enthalpy ([1]; x1 = 0.6688): 0.0803 ± 0.00335 kcal/mol
excess molar enthalpy ([1]; x1 = 0.742): 0.0775 ± 0.00335 kcal/mol
excess molar enthalpy ([1]; x1 = 0.813): 0.0706 ± 0.00311 kcal/mol
excess molar enthalpy ([1]; x1 = 0.8822): 0.0566 ± 0.00263 kcal/mol
excess molar enthalpy ([1]; x1 = 0.9441): 0.0342 ± 0.00179 kcal/mol

ClC(Cl)C(Cl)Cl [1,1,2,2-tetrachloroethane]
Boiling temperature at pressure P [2]: 146.20 ± 0.5 °C
mass density [3]: 1578.58 ± 1.1 kg/m3

ClC(Cl)C(Cl)Cl [1,1,2,2-tetrachloroethane] + CN1CCCC1=O
excess molar enthalpy ([1]; x1 = 0.0331): -0.113 ± 0.00454 kcal/mol
excess molar enthalpy ([1]; x1 = 0.0582): -0.205 ± 0.00765 kcal/mol
excess molar enthalpy ([1]; x1 = 0.0765): -0.256 ± 0.00956 kcal/mol
excess molar enthalpy ([1]; x1 = 0.1279): -0.426 ± 0.0153 kcal/mol
excess molar enthalpy ([1]; x1 = 0.1292): -0.413 ± 0.0148 kcal/mol
excess molar enthalpy ([1]; x1 = 0.1796): -0.555 ± 0.0198 kcal/mol
excess molar enthalpy ([1]; x1 = 0.2318): -0.704 ± 0.0239 kcal/mol
excess molar enthalpy ([1]; x1 = 0.2344): -0.695 ± 0.0239 kcal/mol
excess molar enthalpy ([1]; x1 = 0.288): -0.838 ± 0.0287 kcal/mol
excess molar enthalpy ([1]; x1 = 0.3219): -0.893 ± 0.0311 kcal/mol
excess molar enthalpy ([1]; x1 = 0.34): -0.963 ± 0.0335 kcal/mol
excess molar enthalpy ([1]; x1 = 0.4028): -1.01 ± 0.0359 kcal/mol
excess molar enthalpy ([1]; x1 = 0.4675): -1.09 ± 0.0382 kcal/mol
excess molar enthalpy ([1]; x1 = 0.5226): -1.14 ± 0.0406 kcal/mol
excess molar enthalpy ([1]; x1 = 0.5688): -1.16 ± 0.0406 kcal/mol
excess molar enthalpy ([1]; x1 = 0.5953): -1.16 ± 0.0406 kcal/mol
excess molar enthalpy ([1]; x1 = 0.6265): -1.09 ± 0.0382 kcal/mol
excess molar enthalpy ([1]; x1 = 0.6815): -1 ± 0.0359 kcal/mol
excess molar enthalpy ([1]; x1 = 0.7384): -0.89 ± 0.0311 kcal/mol
excess molar enthalpy ([1]; x1 = 0.7933): -0.742 ± 0.0263 kcal/mol
excess molar enthalpy ([1]; x1 = 0.8536): -0.533 ± 0.0191 kcal/mol
excess molar enthalpy ([1]; x1 = 0.9099): -0.354 ± 0.0129 kcal/mol
excess molar enthalpy ([1]; x1 = 0.9574): -0.179 ± 0.00669 kcal/mol

CC(Cl)(Cl)Cl [1,1,1-trichloroethane]
Boiling temperature at pressure P [2]: 74.20 ± 0.5 °C
mass density [3]: 1320.94 ± 0.88 kg/m3

ClC=C(Cl)Cl [trichloroethene]
Boiling temperature at pressure P [2]: 87.10 ± 0.5 °C
mass density [3]: 1451.2 ± 1 kg/m3

ClCCCl [1,2-dichloroethane]
Boiling temperature at pressure P [2]: 83.80 ± 0.5 °C
mass density [3]: 1238.3 ± 0.8 kg/m3

ClC=C(Cl)Cl [trichloroethene] + CN1CCCC1=O
excess molar enthalpy ([1]; x1 = 0.0381): -0.0454 ± 0.00215 kcal/mol
excess molar enthalpy ([1]; x1 = 0.0886): -0.106 ± 0.0043 kcal/mol
excess molar enthalpy ([1]; x1 = 0.1426): -0.158 ± 0.00598 kcal/mol
excess molar enthalpy ([1]; x1 = 0.2005): -0.216 ± 0.00813 kcal/mol
excess molar enthalpy ([1]; x1 = 0.2675): -0.276 ± 0.01 kcal/mol
excess molar enthalpy ([1]; x1 = 0.3373): -0.343 ± 0.0124 kcal/mol
excess molar enthalpy ([1]; x1 = 0.4001): -0.394 ± 0.0141 kcal/mol
excess molar enthalpy ([1]; x1 = 0.6547): -0.343 ± 0.0124 kcal/mol
excess molar enthalpy ([1]; x1 = 0.7095): -0.315 ± 0.0115 kcal/mol
excess molar enthalpy ([1]; x1 = 0.7643): -0.28 ± 0.0103 kcal/mol
excess molar enthalpy ([1]; x1 = 0.8186): -0.23 ± 0.0086 kcal/mol
excess molar enthalpy ([1]; x1 = 0.873): -0.176 ± 0.00669 kcal/mol
excess molar enthalpy ([1]; x1 = 0.9254): -0.112 ± 0.00454 kcal/mol
excess molar enthalpy ([1]; x1 = 0.9678): -0.0504 ± 0.00234 kcal/mol

ClCCCl [1,2-dichloroethane] + CN1CCCC1=O
excess molar enthalpy ([1]; x1 = 0.0658): -0.0565 ± 0.00263 kcal/mol
excess molar enthalpy ([1]; x1 = 0.1316): -0.11 ± 0.0043 kcal/mol
excess molar enthalpy ([1]; x1 = 0.1959): -0.159 ± 0.00598 kcal/mol
excess molar enthalpy ([1]; x1 = 0.2633): -0.205 ± 0.00765 kcal/mol
excess molar enthalpy ([1]; x1 = 0.331): -0.248 ± 0.00908 kcal/mol
excess molar enthalpy ([1]; x1 = 0.3947): -0.282 ± 0.0103 kcal/mol
excess molar enthalpy ([1]; x1 = 0.4525): -0.301 ± 0.011 kcal/mol
excess molar enthalpy ([1]; x1 = 0.592): -0.267 ± 0.0098 kcal/mol
excess molar enthalpy ([1]; x1 = 0.6421): -0.246 ± 0.00908 kcal/mol
excess molar enthalpy ([1]; x1 = 0.6925): -0.217 ± 0.00813 kcal/mol
excess molar enthalpy ([1]; x1 = 0.7469): -0.194 ± 0.00717 kcal/mol
excess molar enthalpy ([1]; x1 = 0.8024): -0.162 ± 0.00621 kcal/mol
excess molar enthalpy ([1]; x1 = 0.856): -0.123 ± 0.00478 kcal/mol
excess molar enthalpy ([1]; x1 = 0.9111): -0.0802 ± 0.00335 kcal/mol
excess molar enthalpy ([1]; x1 = 0.9608): -0.0403 ± 0.00198 kcal/mol

CN1CCCC1=O [N-methylpyrrolidone]
Boiling temperature at pressure P [2]: 202.30 ± 0.5 °C
mass density [3]: 1023.4 ± 0.7 kg/m3

CC(Cl)(Cl)Cl [1,1,1-trichloroethane] + CN1CCCC1=O
excess molar enthalpy ([1]; x1 = 0.0303): -0.0145 ± 0.0012 kcal/mol
excess molar enthalpy ([1]; x1 = 0.0662): -0.0323 ± 0.00174 kcal/mol
excess molar enthalpy ([1]; x1 = 0.1039): -0.0497 ± 0.00232 kcal/mol
excess molar enthalpy ([1]; x1 = 0.1525): -0.0702 ± 0.00311 kcal/mol
excess molar enthalpy ([1]; x1 = 0.2006): -0.0895 ± 0.00359 kcal/mol
excess molar enthalpy ([1]; x1 = 0.2534): -0.106 ± 0.0043 kcal/mol
excess molar enthalpy ([1]; x1 = 0.3046): -0.122 ± 0.00478 kcal/mol
excess molar enthalpy ([1]; x1 = 0.3555): -0.133 ± 0.00526 kcal/mol
excess molar enthalpy ([1]; x1 = 0.4018): -0.139 ± 0.00526 kcal/mol
excess molar enthalpy ([1]; x1 = 0.4556): -0.139 ± 0.0055 kcal/mol
excess molar enthalpy ([1]; x1 = 0.5054): -0.139 ± 0.00526 kcal/mol
excess molar enthalpy ([1]; x1 = 0.5576): -0.137 ± 0.00526 kcal/mol
excess molar enthalpy ([1]; x1 = 0.6104): -0.141 ± 0.0055 kcal/mol
excess molar enthalpy ([1]; x1 = 0.6634): -0.141 ± 0.0055 kcal/mol
excess molar enthalpy ([1]; x1 = 0.7153): -0.135 ± 0.00526 kcal/mol
excess molar enthalpy ([1]; x1 = 0.7694): -0.122 ± 0.00478 kcal/mol
excess molar enthalpy ([1]; x1 = 0.8172): -0.117 ± 0.00454 kcal/mol
excess molar enthalpy ([1]; x1 = 0.8714): -0.103 ± 0.00406 kcal/mol
excess molar enthalpy ([1]; x1 = 0.9228): -0.0783 ± 0.00335 kcal/mol
excess molar enthalpy ([1]; x1 = 0.9649): -0.0437 ± 0.0021 kcal/mol

ClC(Cl)=C(Cl)Cl [tetrachloroethene]
Boiling temperature at pressure P [2]: 121.00 ± 0.5 °C
mass density [3]: 1606.4 ± 1.1 kg/m3

Reference: the NIST ThermoML archive (doi:10.1021/je020065c)
